Assay results reported in patent publication US20250066343A1, “NOVEL CANNAB[…] DERIVATIVE, PREPARATION METHOD THEREFOR, AND COMPOSITION COMPRISING SAME FOR IMPROVING COGNITIVE FUNCTION” (priority 2021, published 2025).

Legend:
Type in all cases: biochemical
[1] = biological target: T1, Monoamine oxidase B (MAO-B) (Homo sapiens, UniProt P27338); assay: Monoamine oxidase B inhibitory efficacy (kynuramine fluorescence assay); details: compound 0-200 μM; enzyme 2 mU/mL; kynuramine substrate; N.D. = Not Detected
T1 sequence (P27338 1-520): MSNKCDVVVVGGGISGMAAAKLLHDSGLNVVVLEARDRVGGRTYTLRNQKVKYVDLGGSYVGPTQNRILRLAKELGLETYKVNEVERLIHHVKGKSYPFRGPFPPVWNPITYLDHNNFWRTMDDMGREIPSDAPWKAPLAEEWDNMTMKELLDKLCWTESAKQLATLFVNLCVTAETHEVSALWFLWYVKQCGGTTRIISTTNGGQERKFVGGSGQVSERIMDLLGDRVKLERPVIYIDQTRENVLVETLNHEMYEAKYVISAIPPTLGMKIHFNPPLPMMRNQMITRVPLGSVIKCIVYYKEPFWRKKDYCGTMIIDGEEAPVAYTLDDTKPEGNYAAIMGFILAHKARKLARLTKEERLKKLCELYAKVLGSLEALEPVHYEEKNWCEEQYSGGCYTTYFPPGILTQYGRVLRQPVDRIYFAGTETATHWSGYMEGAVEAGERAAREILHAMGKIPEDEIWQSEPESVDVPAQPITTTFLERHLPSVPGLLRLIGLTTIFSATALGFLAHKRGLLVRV
Method: Samples were prepared by dilution with DMSO to give concentrations of 0, 2, 5, 10, 20, 50, 100, and 200 μM of the compound, and 5 μl was dispensed into a 96-well plate. 135 μl of potassium phosphate buffer (0.1 M, 7.4 pH) was dispensed into a 96-well plate. Monoamine oxidase B was prepared at 2 mU/mL, and 50 μl was added to the 96-well plate, mixed with the dispensed compound, and left for 20 minutes. The substrate, kynuramine solution, was prepared at 100 μM, then 10 μl was added to a 96-well plate and left for 10 min. The reaction was stopped by adding 75 μl of NaOH (2N). The enzyme activity was calculated by measuring the concentration of kynuramine degraded by the enzyme using a fluorometer under 310 nm (excitation)/380 nm (emission) conditions. For the fluorescence blank experiment, potassium phosphate buffer was added instead of monoamine oxidase B to correct the compound-induced fluorescence intensity values.

[2] = biological target: Butyrylcholinesterase (BuChE) (Homo sapiens, UniProt P06276); assay: Butyrylcholinesterase inhibitory efficacy (butyrylthiocholine/DTNB absorbance assay); details: compound 0-200 μM; enzyme 50 mU/ml; N.D. = Not Detected
Butyrylcholinesterase (BuChE), sequence (P06276 29-602): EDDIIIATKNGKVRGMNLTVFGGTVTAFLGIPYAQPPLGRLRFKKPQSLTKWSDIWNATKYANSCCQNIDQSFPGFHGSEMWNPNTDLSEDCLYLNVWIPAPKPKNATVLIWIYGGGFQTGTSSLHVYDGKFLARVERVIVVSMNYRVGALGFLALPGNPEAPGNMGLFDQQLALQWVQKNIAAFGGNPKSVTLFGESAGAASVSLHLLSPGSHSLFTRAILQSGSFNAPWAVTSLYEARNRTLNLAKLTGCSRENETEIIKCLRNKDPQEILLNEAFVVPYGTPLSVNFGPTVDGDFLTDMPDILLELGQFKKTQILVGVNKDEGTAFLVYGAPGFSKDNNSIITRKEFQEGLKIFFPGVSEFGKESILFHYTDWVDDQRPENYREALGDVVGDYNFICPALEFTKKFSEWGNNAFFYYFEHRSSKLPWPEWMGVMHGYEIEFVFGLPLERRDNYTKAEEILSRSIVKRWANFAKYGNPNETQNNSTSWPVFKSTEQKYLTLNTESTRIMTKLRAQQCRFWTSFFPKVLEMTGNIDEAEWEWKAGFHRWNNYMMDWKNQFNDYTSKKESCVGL
Method: (§1) Acetylcholinesterase or butyrylcholinesterase was prepared at 50 mU/ml, 50 μl was added to a 96-well plate, mixed with the aliquoted compound, and left for 10 minutes. The substrate, acetylthiocoline 0.05 mg/mL or butyrylthiocoline 0.1 mg/ml, was prepared and 50 μl was added to a 96-well plate and left for 10 minutes. Dithionitrobenzoic acid (DTNB) was prepared at 0.3 mg/ml, then 50 μl was added to a 96-well plate and left for 10 minutes.

[3] = biological target: Acetylcholinesterase (AChE) (Homo sapiens, UniProt P22303); assay: Acetylcholinesterase inhibitory efficacy (acetylthiocholine/DTNB absorbance assay)
Acetylcholinesterase (AChE), sequence (P22303 32-614, species assumed): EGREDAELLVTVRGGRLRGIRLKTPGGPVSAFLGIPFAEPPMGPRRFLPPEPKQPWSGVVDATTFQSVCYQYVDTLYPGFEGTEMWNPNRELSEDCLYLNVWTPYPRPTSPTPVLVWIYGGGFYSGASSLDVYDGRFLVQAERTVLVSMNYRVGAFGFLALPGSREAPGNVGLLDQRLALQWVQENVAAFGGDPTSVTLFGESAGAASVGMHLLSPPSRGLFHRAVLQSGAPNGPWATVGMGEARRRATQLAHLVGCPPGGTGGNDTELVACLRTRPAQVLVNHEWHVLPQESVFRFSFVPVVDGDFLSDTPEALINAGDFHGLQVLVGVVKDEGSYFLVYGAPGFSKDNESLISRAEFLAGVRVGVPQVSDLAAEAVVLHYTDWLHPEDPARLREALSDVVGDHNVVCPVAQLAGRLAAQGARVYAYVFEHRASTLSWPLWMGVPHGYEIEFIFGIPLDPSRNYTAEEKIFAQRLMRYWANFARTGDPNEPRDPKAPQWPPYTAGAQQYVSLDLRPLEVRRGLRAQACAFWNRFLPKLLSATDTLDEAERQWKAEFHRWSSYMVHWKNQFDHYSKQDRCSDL
Method: as §1

| Compound | IC50 [1] [µM] | IC50 [2] [µM] | IC50 [3] [nM] |
| --- | --- | --- | --- |
| CCCCCc1cc2c(c(O)c1C(=O)NC1Cc3ccccc3C1)C=CC(C)(CCC=C(C)C)O2 (centres unmarked) [Compound 4aa, N-(2,3-dihydro-1H-inden-2-yl)-5-hydroxy-2-methyl-2-(4-methylpent-3-en-1-yl)-7-pentyl-2H-chromene-6-carboxamide] | 100 | 164 | 2000 |
| CCCCCc1cc2c(c(O)c1C(=O)N1CCN(CCO)CC1)C=CC(C)(CCC=C(C)C)O2 (centres unmarked) [Compound 4ae, (5-hydroxy-2-methyl-2-(4-methylpent-3-en-1-yl)-7-pentyl-2H-chromen-6-yl)(4-(2-hydroxyethyl)piperazin-1-yl)methanone] | 55.8 | 72.3 | < 500 |
| CCCCCc1cc2c(c(O)c1C(=O)Nc1ccccc1)C=CC(C)(CCC=C(C)C)O2 (centres unmarked) [Compound 4b, 5-hydroxy-2-methyl-2-(4-methylpent-3-en-1-yl)-7-pentyl-N-phenyl-2H-chromene-6-carboxamide] | 176 | 94.6 | 400 |
| CCCCCc1cc2c(c(O)c1C(=O)NC1CCN(C)CC1)C=CC(C)(CCC=C(C)C)O2 (centres unmarked) [Compound 4q, 5-hydroxy-2-methyl-2-(4-methylpent-3-en-1-yl)-N-(1-methylpiperidin-4-yl)-7-pentyl-2H-chromene-6-carboxamide] | 131 | 6.2 | – |
| CCCCCc1cc2c(c(O)c1C(=O)NN1CCCCC1)C=CC(C)(CCC=C(C)C)O2 (centres unmarked) [Compound 4z, 5-hydroxy-2-methyl-2-(4-methylpent-3-en-1-yl)-7-pentyl-N-(piperidin-1-yl)-2H-chromene-6-carboxamide] | 156 | 1.3 | 29000 |
